According to ChEMBL document CHEMBL1138899, “Acyclic nucleoside analogues as inhibitors of Plasmodium falciparum dUTPase” (J Med Chem, 2006):

Key:
[1] = Stability in simulated gastric fluid after 0.2 mins; format: ADME; details: read-out: Stability
dUTP pyrophosphatase = target: T1, dUTP pyrophosphatase (Plasmodium falciparum 3D7, UniProt Q8II92); experiment: Inhibition of Plasmodium falciparum dUTPase
T1 sequence (Q8II92 whole entry): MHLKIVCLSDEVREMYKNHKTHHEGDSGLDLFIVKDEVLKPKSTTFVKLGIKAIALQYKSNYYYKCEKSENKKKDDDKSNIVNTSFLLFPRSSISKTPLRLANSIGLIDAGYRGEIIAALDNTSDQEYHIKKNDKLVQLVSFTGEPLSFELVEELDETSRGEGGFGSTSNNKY

[2] = target: T2, Deoxyuridine 5'-triphosphate nucleotidohydrolase, mitochondrial (Homo sapiens, UniProt P33316); experiment: Inhibition of human recombinant dUTPase
T2 sequence (P33316 whole entry): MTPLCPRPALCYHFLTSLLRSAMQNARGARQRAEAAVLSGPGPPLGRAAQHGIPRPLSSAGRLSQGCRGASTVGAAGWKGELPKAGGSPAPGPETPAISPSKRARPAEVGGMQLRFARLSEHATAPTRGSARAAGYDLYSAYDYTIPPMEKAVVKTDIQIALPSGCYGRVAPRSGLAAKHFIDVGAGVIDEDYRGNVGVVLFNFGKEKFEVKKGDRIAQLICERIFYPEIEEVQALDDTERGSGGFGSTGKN

Plasmodium falciparum = experiment: Antiplasmodial activity against Plasmodium falciparum; format: functional, organism-based
L6 = experiment: Cytotoxicity against rat L6 cells; format: functional, cell-based
[3] = target: T3, dUTP pyrophosphatase (Plasmodium falciparum 3D7) (UniProt Q8II92); experiment: Selectivity index, human dUTPase/Plasmodium falciparum dUTPase
T3 sequence (whole entry): T1 sequence (Q8II92 whole entry)

[4] = Intrinsic clearance in human liver microsome; format: ADME; details: liver microsomes
[5] = Stability in simulated gastric fluid after 150 mins; format: ADME; details: read-out: Stability
[6] = Stability in simulated gastric fluid after 5 mins; format: ADME; details: read-out: Stability

| Structure (SMILES) | remaining at 12 s [1] | Ki (dUTP pyrophosphatase) | Ki [2] | IC50 (Plasmodium falciparum) | IC50 (L6) | Selectivity index [3] | microsomal CLint [4] | remaining at 2.5 h [5] | remaining at 5 min [6] |
| --- | --- | --- | --- | --- | --- | --- | --- | --- | --- |
| O=c1ccn(CCCCCCO[Si](c2ccccc2)(c2ccccc2)c2ccccc2)c(=O)[nH]1 | < 2% | 1.7 µM | 383 µM | 0.46 µM | 50 µM | 227 | 35 µL/min/mg | – | – |
| [N-]=[N+]=NCC(CCOC(c1ccccc1)(c1ccccc1)c1ccccc1)Cn1ccc(=O)[nH]c1=O (configuration not stated) | – | 23 µM | > 1000 µM | 0.64 µM | 18 µM | – | – | – | – |
| CC(C)(C)OC(=O)NCC(CCn1ccc(=O)[nH]c1=O)COC(c1ccccc1)(c1ccccc1)c1ccccc1 (configuration not stated) | – | 2.5 µM | > 1000 µM | 0.9 µM | – | – | – | – | – |
| O=c1ccn(CC(CCO)COC(c2ccccc2)(c2ccccc2)c2ccccc2)c(=O)[nH]1 (configuration not stated) | – | 0.9 µM | 21 µM | 1.9 µM | 57 µM | – | – | – | – |
| O=c1ccn(CCCCCO)c(=O)[nH]1 | – | > 1000 µM | > 1000 µM | 20 µM | > 454 µM | – | – | – | – |
| O=c1ccn(CCCCO[Si](c2ccccc2)(c2ccccc2)c2ccccc2)c(=O)[nH]1 | < 2% | 2.2 µM | > 1000 µM | 0.36 µM | – | > 446 | 69 µL/min/mg | – | – |
| O=C(OCCCCn1ccc(=O)[nH]c1=O)c1ccccc1 | – | 224 µM | 496 µM | 38 µM | – | 2 | – | – | – |
| O=c1ccn(CCCNC(c2ccccc2)(c2ccccc2)c2ccccc2)c(=O)[nH]1 | – | 0.2 µM | 1.4 µM | 4.4 µM | 107 µM | 7 | – | – | – |
| O=c1ccn(CCCCNC(c2ccccc2)(c2ccccc2)c2ccccc2)c(=O)[nH]1 | – | – | > 1000 µM | 3.8 µM | 33 µM | > 1110 | 64 µL/min/mg | 94% | – |
| O=c1ccn(CCCO)c(=O)[nH]1 | – | 368 µM | > 1000 µM | > 29 µM | – | > 2 | – | – | – |
| O=c1ccn(CCCCCCO)c(=O)[nH]1 | – | > 1000 µM | 636 µM | 19 µM | – | – | – | – | – |
| O=c1ccn(CC(CO)CCOC(c2ccccc2)(c2ccccc2)c2ccccc2)c(=O)[nH]1 (configuration not stated) | – | 2.2 µM | 260 µM | 1.2 µM | 33 µM | – | – | – | – |
| O=C(OCCCn1ccc(=O)[nH]c1=O)c1ccccc1 | – | 9.2 µM | 898 µM | > 18 µM | – | > 97 | – | – | – |
| O=C(NCCCCn1ccc(=O)[nH]c1=O)OCc1ccccc1 | – | 17 µM | > 1000 µM | 15 µM | – | > 60 | – | – | – |
| O=C(OCCOCn1ccc(=O)[nH]c1=O)c1ccccc1 | – | 98 µM | 311 µM | 127 µM | 202 µM | 3 | – | – | – |
| CC(C)(C)[Si](C)(C)OCCOCn1ccc(=O)[nH]c1=O | – | 44 µM | 63 µM | 62 µM | > 299 µM | 1.4 | – | – | – |
| O=c1ccn([C@H]2C[C@H](O)[C@@H](COC(c3ccccc3)(c3ccccc3)c3ccccc3)O2)c(=O)[nH]1 | – | – | 18 µM | 6 µM | 192 µM | 10 | – | – | – |
| O=c1ccn(COCCOC(c2ccccc2)(c2ccccc2)c2ccccc2)c(=O)[nH]1 | – | 0.7 µM | 17 µM | 0.9 µM | 39 µM | 25 | 96 µL/min/mg | – | – |
| O[Si](c1ccccc1)(c1ccccc1)c1ccccc1 | – | > 1000 µM | > 1000 µM | 0.65 µM | 138 µM | – | – | – | – |
| O=c1ccn(CCCO[Si](c2ccccc2)(c2ccccc2)c2ccccc2)c(=O)[nH]1 | – | 1.6 µM | 25 µM | 0.58 µM | 70 µM | 16 | – | – | – |
| O=c1ccn(CCCCO)c(=O)[nH]1 | – | > 1000 µM | > 1000 µM | 235 µM | – | – | – | – | – |

| Structure (SMILES) | remaining at 12 s [1] | Ki (dUTP pyrophosphatase) | Ki [2] | IC50 (Plasmodium falciparum) | IC50 (L6) | Selectivity index [3] | microsomal CLint [4] | remaining at 2.5 h [5] | remaining at 5 min [6] |
| --- | --- | --- | --- | --- | --- | --- | --- | --- | --- |
| O=c1ccn([C@H]2C[C@H](O)[C@@H](CNC(c3ccccc3)(c3ccccc3)c3ccccc3)O2)c(=O)[nH]1 | – | – | 46 µM | 4.5 µM | 44 µM | – | – | – | – |
| O=c1ccn([C@H]2C[C@H](F)[C@@H](COC(c3ccccc3)(c3ccccc3)c3ccccc3)O2)c(=O)[nH]1 | – | – | 457 µM | 2 µM | – | – | – | – | – |
| O=c1ccn(C/C=C\COC(c2ccccc2)(c2ccccc2)c2ccccc2)c(=O)[nH]1 | – | 1.2 µM | 5.2 µM | 3.5 µM | 39 µM | 4 | – | – | – |
| O=C(OCCCCCCn1ccc(=O)[nH]c1=O)c1ccccc1 | – | 32 µM | > 1000 µM | 3.4 µM | – | > 31 | – | – | – |
| CC(C)(C)[Si](C)(C)O | – | – | – | > 37 µM | > 680 µM | – | – | – | – |
| CC(C)(C)[Si](C)(C)OCCCn1ccc(=O)[nH]c1=O | – | 73 µM | 73 µM | > 18 µM | 192 µM | 1 | – | – | – |
| O=c1ccn(CCC(CO)CNC(c2ccccc2)(c2ccccc2)c2ccccc2)c(=O)[nH]1 (configuration not stated) | – | 0.24 µM | 5.7 µM | 3.2 µM | 55 µM | – | – | – | – |
| O=c1ccn(CCCCOC(c2ccccc2)(c2ccccc2)c2ccccc2)c(=O)[nH]1 | – | 1.6 µM | > 1000 µM | 4.9 µM | 42 µM | > 617 | 68 µL/min/mg | – | 2% |
| CC(C)(C)[Si](OCCCCCCn1ccc(=O)[nH]c1=O)(c1ccccc1)c1ccccc1 | – | 8.5 µM | > 1000 µM | 3.9 µM | 18 µM | > 118 | – | – | – |
| O=c1ccn(CCCCCOC(c2ccccc2)(c2ccccc2)c2ccccc2)c(=O)[nH]1 | – | 2 µM | > 1000 µM | 1.1 µM | 24 µM | > 500 | – | – | – |
| O=c1ccn(C/C=C/COC(c2ccccc2)(c2ccccc2)c2ccccc2)c(=O)[nH]1 | – | 0.6 µM | > 1000 µM | 3.7 µM | 34 µM | > 1670 | – | – | – |
| OC(c1ccccc1)(c1ccccc1)c1ccccc1 [TRIPHENYLMETHANOL] | – | > 1000 µM | > 1000 µM | 12 µM | – | – | – | – | – |
| O=c1ccn(CCCCCCOC(c2ccccc2)(c2ccccc2)c2ccccc2)c(=O)[nH]1 | – | 9.6 µM | 476 µM | 2.3 µM | 44 µM | 50 | – | – | – |
| CC(C)(C)OC(=O)NCCCCn1ccc(=O)[nH]c1=O | – | 112 µM | > 1000 µM | 17 µM | – | > 8 | – | – | – |
| O=c1ccn(CCCCCCNC(c2ccccc2)(c2ccccc2)c2ccccc2)c(=O)[nH]1 | – | 1.8 µM | > 1000 µM | 1.1 µM | 40 µM | > 543 | – | – | – |
| O=c1ccn(CCCCCNC(c2ccccc2)(c2ccccc2)c2ccccc2)c(=O)[nH]1 | – | – | > 1000 µM | 2.2 µM | 39 µM | > 233 | – | – | – |
| O=c1ccn(CCCCCO[Si](c2ccccc2)(c2ccccc2)c2ccccc2)c(=O)[nH]1 | – | 3.8 µM | > 1000 µM | 0.38 µM | 47 µM | > 265 | – | – | – |
| CC(=O)OCC(CCn1ccc(=O)[nH]c1=O)CNC(c1ccccc1)(c1ccccc1)c1ccccc1 (configuration not stated) | – | 1.3 µM | 74 µM | 2.8 µM | 37 µM | – | – | – | – |
| O=c1ccn([C@H]2C[C@H](O)[C@@H](CO[Si](c3ccccc3)(c3ccccc3)c3ccccc3)O2)c(=O)[nH]1 | – | – | – | 1.1 µM | – | – | – | – | – |
| O=c1ccn(CCCOC(c2ccccc2)(c2ccccc2)c2ccccc2)c(=O)[nH]1 | – | 87 µM | 313 µM | 7.5 µM | 34 µM | 4 | – | – | – |
